Here are results for six compounds from PMC12195740, “Discovery of Novel Imidazothiazole-Based Hydroxamic Acid Derivatives as Potent Indoleamine 2,3-Dioxygenase 1 and Histone Deacetylase 6 Dual Inhibitors” (Molecules, 2025).

On the set-up of data set [1]: method as in PMID 32815366. The note with it: cell line not given; cited from earlier work.
The next data set relates to MCF-7 cells. The data set can be described thus: Cell viability (MTT) assay, MCF-7. The note with it: Homo sapiens, MCF7, 48 h, read-out: Antiproliferative IC50, MCF-7.
A further data set relates to HCT-116 cells. Description: Cell viability (MTT) assay, HCT-116. The note with it: Homo sapiens, HCT-116, 48 h, read-out: Antiproliferative IC50, HCT-116.
Data set [2] can be described thus: Cell viability assay, HK2 normal renal cells. The note with it: human.
Description: On the basis of the IDO1 and HDAC activities, we explored the proliferation inhibitory activities of the selected compounds against four solid tumor cells lines.
The target in the next data set is T1, rhIDO1 (Homo sapiens, UniProt P14902).
T1 construct: purchased
The data set can be described thus: IDO1 inhibition assay. The format is biochemical. As to conditions: means ± S.D. of three independent experiments. As to the method:
Section S1. Biological assays […]
Section S 1.2 IDO1 inhibition assays
IDO1 inhibition assays were carried out according to the manufacturers’ procedures, as described previously. The standard assay mixture (100 μL) contained 50 mM of potassium phosphate buffer (pH = 6.5), 10 mM ascorbate, 10 μM methylene blue, 100 μg/mL catalase, 1 mM L-tryptophan and 10 μg/mL of rhIDO1. The plate was incubated at 37 °C in a dark environment, and reactions were terminated after 60 min by the addition of 50 μL of fluorogenic developer solution and further incubated at 45 °C in dark for 3 h. Then, the plate was allowed to cool to room temperature for at least 1 h. After centrifugation at 1500g for 5 min at 20 °C, the fluorescence […]
M1000 Pro, Tecan US, Morrisville, NC) in an end-point mode. […]

The test system of another data set is SW480 cells. The data set can be described thus: Cell viability (MTT) assay, SW480. As to conditions: Homo sapiens, SW480, 48 h, read-out: Antiproliferative IC50, SW480.
The subject of another data set is MDA-MB-231 cells. The data set can be described thus: Cell viability (MTT) assay, MDA-MB-231. The note with it: Homo sapiens, MDA-MB-231, 48 h, read-out: Antiproliferative IC50, MDA-MB-231.
Data set [3] addresses T2, HDAC6 human recombinant enzyme (Homo sapiens, UniProt Q9UBN7).
T2 sequence (Q9UBN7 1-1215): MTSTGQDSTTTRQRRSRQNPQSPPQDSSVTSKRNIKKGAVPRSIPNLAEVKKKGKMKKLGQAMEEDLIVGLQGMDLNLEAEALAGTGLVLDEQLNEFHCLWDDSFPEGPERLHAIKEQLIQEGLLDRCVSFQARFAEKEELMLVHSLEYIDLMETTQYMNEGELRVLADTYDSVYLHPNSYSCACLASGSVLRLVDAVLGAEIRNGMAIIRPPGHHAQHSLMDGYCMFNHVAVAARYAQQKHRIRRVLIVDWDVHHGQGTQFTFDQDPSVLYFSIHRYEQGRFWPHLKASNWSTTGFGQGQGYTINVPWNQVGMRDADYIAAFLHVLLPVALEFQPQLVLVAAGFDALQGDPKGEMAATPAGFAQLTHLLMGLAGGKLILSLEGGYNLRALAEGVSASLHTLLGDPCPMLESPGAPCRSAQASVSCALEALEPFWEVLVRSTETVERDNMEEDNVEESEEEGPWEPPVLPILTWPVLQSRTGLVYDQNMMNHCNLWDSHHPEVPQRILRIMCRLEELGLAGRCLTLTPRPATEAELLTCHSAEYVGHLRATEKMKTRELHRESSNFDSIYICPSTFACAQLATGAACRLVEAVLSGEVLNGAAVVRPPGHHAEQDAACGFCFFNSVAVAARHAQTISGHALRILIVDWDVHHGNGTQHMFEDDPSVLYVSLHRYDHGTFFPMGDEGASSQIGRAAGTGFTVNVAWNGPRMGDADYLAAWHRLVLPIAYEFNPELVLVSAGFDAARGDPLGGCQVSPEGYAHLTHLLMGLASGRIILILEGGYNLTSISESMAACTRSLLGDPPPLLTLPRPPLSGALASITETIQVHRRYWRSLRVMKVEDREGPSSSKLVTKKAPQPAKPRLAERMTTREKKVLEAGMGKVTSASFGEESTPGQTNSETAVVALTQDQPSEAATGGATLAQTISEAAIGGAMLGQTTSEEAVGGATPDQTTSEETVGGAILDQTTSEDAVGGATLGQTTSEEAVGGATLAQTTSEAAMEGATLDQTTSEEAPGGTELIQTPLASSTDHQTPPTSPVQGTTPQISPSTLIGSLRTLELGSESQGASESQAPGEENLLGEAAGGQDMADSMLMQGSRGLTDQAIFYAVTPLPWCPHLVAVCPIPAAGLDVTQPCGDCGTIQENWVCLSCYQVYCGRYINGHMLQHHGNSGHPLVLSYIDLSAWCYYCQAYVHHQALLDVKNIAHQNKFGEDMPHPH
Description: HDAC6 enzyme inhibitory activity assay. The format is biochemical. As to conditions: for inhibition at 1 µM: read-out: HDAC6 Inhibition Rate at 1 μM. How it is done: Section S1. Biological assays
Section S 1.1. HDAC6 enzyme inhibitory activity assay
Preparation of Master Mix. Trichostatin A in DMSO, Fluorogenic HDAC substrate 3, and HDAC6 human recombinant enzyme were diluted to 20 μM, 200 μM, and 7 ng/uL, respectively, using HDAC Assay Buffer.BSA was dissolved in 1 mL of distilled water to make a BSA solution at a concentration of 1 mg/mL. A certain amount of Fluorogenic HDAC substrate 3, BSA and HDAC Assay Buffer were mixed well to make a master mix, and 40 μL of the master mix was added to each well of a 96-well plate. In the drug administration group, 5 μL of Trichostatin A in DMSO and HDAC6 human recombinant enzyme were added to each well. 5 μL of HDAC Assay Buffer and HDAC6 human recombinant enzyme were added to each well of the blank group, and incubated for 30 min at 37 °C. Finally, 50 μL of undiluted HDAC substrate 3, BSA and HDAC Assay Buffer were added to each well. 50 μL of 2x HDAC Developer was added to each well and incubated at room temperature for 15 min. The samples were read in an enzyme marker with an excitation wavelength in the range of 350-380 nm and an emission light in the range of 440-460 nm.
The values of fluorescence intensities were read and the inhibition rate and IC50 were calculated. […]

Data set [4] is described as follows: General toxicity in CT26 tumor-bearing BALB/c mice (body weight, H&E of organs). As to conditions: 150 mg/kg ip every 3 days for 21 days, versus vehicle group. The format is in vivo. As to the method: After that, fixed cells were washed with PBS. Then, cells were isolated by centrifugation and stained with propidium iodide (KeyGEN BioTECH, China) for 30 min. The samples were measured using flow cytometry and analyzed by Flowjo software.
Section S 1.6 Western blot assay […]
earlier were obtained by lysing the cells in ice-cold RIPA buffer with protease and phosphatase inhibitor and stored at -20°C for future use. The protein concentrations were quantified by the Bradford method (Bio-Rad) using a Multimode Varioscan instrument (Thermo Fischer Scientific). […]
and transferred to a polyvinylidene difluoride (PVDF) membrane (Amersham Biosciences). After the membrane was blocked at room temperature for 2 h in blocking solution, primary antibody was added and incubated at 4°C overnight. Ac-α-tubulin, Ac-histone H3 and GAPDH antibodies were purchased from Imgenex, USA. After three TBST washes, the membrane was incubated with corresponding horseradish peroxidase-labeled secondary antibody (1:2,000) (Santa Cruz) at room temperature for 1 h. Membranes were washed with TBST three times for 15 min and the protein bands were detected with chemiluminescence reagent (Thermo Fischer Scientific). The X-ray films were developed using developer and fixed with fixer solution.
Section S 1.7 In vivo antitumor efficacy […]
line CT-26 in BALB/c mice as described previously. Five-week-old male BALB/c mice were purchased from the Shanghai Ling Chang biotechnology company (China), and tumors were induced through subcutaneous injection of 1 × 10^7 cells in 100 µL of sterile PBS into the dorsal region. The animals were divided into four groups, starting on the second day. When the tumors reached a volume of 50−100 mm3 in all mice, the first group was administered intraperitoneally with an equivalent volume of 5% dextrose as the vehicle control. The second group was treated with […]
treated with complex 10e at doses of 150 mg/kg body weight once every 3 days for 3 weeks, respectively. All compounds were dissolved in vehicle. Tumor volumes and body weights were […]

For a further data set, the target named is HDAC4 (Homo sapiens, UniProt P56524). Description: HDAC isoform selectivity assay, HDAC4. The format is biochemical. The note with it: read-out: HDAC4 % inhibition rate at 10 μM.
For the next data set, the target named is HDAC1 (Homo sapiens, UniProt Q13547). Description: HDAC isoform selectivity assay, HDAC1. The format is biochemical.
In the next data set the target is T3, HDAC11 (Homo sapiens, UniProt Q96DB2).
T3 sequence (Q96DB2 1-347): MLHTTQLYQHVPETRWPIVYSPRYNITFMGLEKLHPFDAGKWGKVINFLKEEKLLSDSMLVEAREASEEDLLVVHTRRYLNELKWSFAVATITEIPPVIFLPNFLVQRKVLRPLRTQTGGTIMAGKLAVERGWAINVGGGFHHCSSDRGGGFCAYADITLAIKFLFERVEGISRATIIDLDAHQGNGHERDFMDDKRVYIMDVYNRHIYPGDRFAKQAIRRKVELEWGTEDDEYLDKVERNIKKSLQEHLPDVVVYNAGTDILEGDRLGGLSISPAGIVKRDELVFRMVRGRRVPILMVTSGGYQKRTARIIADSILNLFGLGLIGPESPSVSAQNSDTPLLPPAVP
Description: HDAC isoform selectivity assay, HDAC11. The format is biochemical.

T1 sequence (P14902 whole entry): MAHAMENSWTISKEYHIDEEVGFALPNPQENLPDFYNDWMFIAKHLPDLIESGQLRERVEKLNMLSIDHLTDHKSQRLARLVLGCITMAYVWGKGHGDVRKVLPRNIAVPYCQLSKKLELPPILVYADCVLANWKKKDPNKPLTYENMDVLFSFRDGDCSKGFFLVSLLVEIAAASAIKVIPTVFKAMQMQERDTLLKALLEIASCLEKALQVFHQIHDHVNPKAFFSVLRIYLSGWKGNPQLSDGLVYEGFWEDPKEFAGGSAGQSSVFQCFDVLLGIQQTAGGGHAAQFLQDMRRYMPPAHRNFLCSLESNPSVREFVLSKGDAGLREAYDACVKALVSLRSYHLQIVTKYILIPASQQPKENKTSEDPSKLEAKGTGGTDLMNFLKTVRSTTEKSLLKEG
Sequence of HDAC4 (P56524 whole entry, species assumed, canonical isoform): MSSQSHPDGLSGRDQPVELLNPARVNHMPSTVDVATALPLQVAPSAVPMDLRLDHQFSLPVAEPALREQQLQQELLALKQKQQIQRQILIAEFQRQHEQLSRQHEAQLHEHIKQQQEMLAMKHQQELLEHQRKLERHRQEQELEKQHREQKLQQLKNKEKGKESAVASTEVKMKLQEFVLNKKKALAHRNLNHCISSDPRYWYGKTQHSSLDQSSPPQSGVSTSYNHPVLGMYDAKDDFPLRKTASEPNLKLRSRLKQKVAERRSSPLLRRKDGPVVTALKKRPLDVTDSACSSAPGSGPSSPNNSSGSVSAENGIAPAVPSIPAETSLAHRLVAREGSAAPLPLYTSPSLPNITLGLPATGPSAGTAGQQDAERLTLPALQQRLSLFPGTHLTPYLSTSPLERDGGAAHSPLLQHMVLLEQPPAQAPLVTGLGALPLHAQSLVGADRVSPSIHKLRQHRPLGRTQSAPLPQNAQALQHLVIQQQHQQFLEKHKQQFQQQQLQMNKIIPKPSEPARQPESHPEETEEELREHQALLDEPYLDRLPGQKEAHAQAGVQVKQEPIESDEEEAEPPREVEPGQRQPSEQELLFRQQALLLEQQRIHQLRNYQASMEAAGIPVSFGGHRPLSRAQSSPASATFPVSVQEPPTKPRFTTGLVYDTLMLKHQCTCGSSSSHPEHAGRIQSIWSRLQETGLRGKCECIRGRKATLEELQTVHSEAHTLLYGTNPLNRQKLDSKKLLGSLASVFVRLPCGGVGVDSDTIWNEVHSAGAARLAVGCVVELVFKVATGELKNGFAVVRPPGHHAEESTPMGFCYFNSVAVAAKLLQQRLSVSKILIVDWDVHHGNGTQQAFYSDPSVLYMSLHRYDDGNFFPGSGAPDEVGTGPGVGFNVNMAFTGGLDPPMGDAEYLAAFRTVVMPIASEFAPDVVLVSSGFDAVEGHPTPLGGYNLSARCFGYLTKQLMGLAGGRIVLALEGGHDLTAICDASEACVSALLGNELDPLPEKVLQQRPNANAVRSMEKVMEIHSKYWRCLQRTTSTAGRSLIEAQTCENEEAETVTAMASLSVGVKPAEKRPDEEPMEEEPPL
Sequence of HDAC1 (Q13547 whole entry, species assumed, canonical isoform): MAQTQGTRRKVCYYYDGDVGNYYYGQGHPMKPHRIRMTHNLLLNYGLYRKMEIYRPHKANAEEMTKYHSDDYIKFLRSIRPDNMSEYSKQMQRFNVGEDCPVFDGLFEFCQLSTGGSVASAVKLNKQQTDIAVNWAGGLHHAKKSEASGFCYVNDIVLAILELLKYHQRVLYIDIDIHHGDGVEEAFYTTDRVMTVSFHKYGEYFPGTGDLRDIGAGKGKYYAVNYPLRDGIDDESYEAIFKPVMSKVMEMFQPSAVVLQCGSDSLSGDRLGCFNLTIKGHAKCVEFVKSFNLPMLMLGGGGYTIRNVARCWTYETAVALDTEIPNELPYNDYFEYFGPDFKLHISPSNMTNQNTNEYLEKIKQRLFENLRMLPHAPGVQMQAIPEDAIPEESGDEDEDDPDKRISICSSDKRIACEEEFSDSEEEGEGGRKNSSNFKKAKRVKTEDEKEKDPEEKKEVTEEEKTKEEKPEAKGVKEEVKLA
Description for HCT-116 cells: Section S 1.3 Cell viability assays
(§1) Cell Bank at the Chinese Academy of Sciences.
(§2) DMEM and FBS were obtained from Gibco-Thermo (BRL Co. Ltd., USA).
(§3) another 48 h. The cells were stained with 10 μl of MTT at incubator for approximately 4 h. The medium was discarded and replaced by 100 mL DMSO. The O.D. value was read at 570/630 nm with a spectrophotometer.
Description for MCF-7 cells: Section S 1.3 Cell viability assays
as §1, §2, §3
Description for MDA-MB-231 cells: Section S 1.3 Cell viability assays
as §1, §2, §3
Description for SW480 cells: Section S 1.3 Cell viability assays
as §1, §2, §3

In the case of `CCCCN(Cc1ccc(C(=O)NO)cc1)C(=O)Nc1ccccc1` [NextA], the “concentration at which cytotoxicity begins” value in data set [1] is 10 µM.

As to `O=C(O)c1cnc2scc(-c3ccc(Br)cc3)n12` [5a], the concentration for half-maximal inhibition (IC50) – broadly, the midpoint of a concentration-inhibition curve – with MCF-7 cells was above 80 µM; in the data set on HCT-116 cells, above 80 µM; in [2], above 80 µM; against rhIDO1, 6.52 ± 0.45 µM; with SW480 cells it was above 80 µM; in the data set with MDA-MB-231 cells, above 80 µM.

Consider `O=C(CCCCCCC(=O)Nc1ccccc1)NO` [SAHA, reference compound], for which the inhibition (as a rule, the percentage by which the read-out fell short of the control) at 1 µM in data set [3] was found to be 91.7%. In data set [4], the “influence on body weight of the mice” value is reported as “no obvious influence”.

In the case of `Cc1ccc(-c2csc3ncc(C(=O)Nc4ccc(NCCCCCCC(=O)NO)cc4)n23)cc1` [Compound 10k, N-{4-[(7-(hydroxyamino)-7-oxoheptyl)amino]phenyl}-3-(p-tolyl)imidazo[2,1-b]thiazole-5-carboxamide], the concentration for half-maximal inhibition (IC50) in the data set on MCF-7 cells was above 80 µM; with HCT-116 cells, above 80 µM; at rhIDO1 it was 0.16 ± 0.03 µM; on HDAC1 it was 1.19 µM; in data set [3], 0.391 µM; in the data set with SW480 cells, above 80 µM. Further, the half-inhibitory concentration (IC50) in the data set on MDA-MB-231 cells is above 80 µM. Further, the inhibition at 10 µM stood at 9.68% on HDAC4 and 29.8% at HDAC11 (read-out: HDAC11 % inhibition rate at 10 μM). Besides, the “Selectivity Index (SI) = HDAC1 IC50 value/HDAC6 IC50 value” in data set [3] is 3.04. Moreover, in data set [3], the inhibition at 1 µM turned out to be 70.7%.

As to `O=C(NO)c1ccc(CNC(=O)c2cnc3scc(-c4ccc(Br)cc4)n23)cc1` [Compound 7a, 3-(4-Bromophenyl)-N-[4-(hydroxycarbamoyl)benzyl]imidazo[2,1-b]thiazole-5-carboxamide], the IC50 with MCF-7 cells is above 80 µM; in the data set on HCT-116 cells it was above 80 µM; against rhIDO1, 0.53 ± 0.11 µM; at HDAC1, 2.45 µM; in [3], 0.0844 µM; on HDAC11 it was 6.06 µM. In addition, the IC50 with SW480 cells and in the data set on MDA-MB-231 cells was above 80 µM throughout. For the same compound, the inhibition at 10 µM on HDAC4 came out at 31.5%. In addition, the “Selectivity Index (SI) = HDAC1 IC50 value/HDAC6 IC50 value” in data set [3] was determined as 29.00. The inhibition at 1 µM in data set [3] was 85.6%.

`NCc1ccc(NC(=O)N(CCCCO)Cc2ccc(C(=O)NO)cc2)cc1` [Suprastat]: the “concentration at which cytotoxicity begins” value in data set [1] is above 25 µM.
